Tests used:
Assay in all cases: Enzyme Inhibition Assay
Beta-secretase 1 = Beta-secretase 1 (Homo sapiens, UniProt P56817); settings: pH 4.5; 22 °C
Experimental: (§1) Enzyme activity and inhibition were assayed using a fluorescent FAM-[SEVNLDAEFK]-TAMRA substrate. Control reactions with no enzyme were included in each assay. Quantification of substrate cleavage was assessed using an LJL analyst spectrophotometer (485nm excitation, 535nm emission).

Cathepsin D = Cathepsin D (Homo sapiens, UniProt P07339)
Experimental: as §1

Beta-secretase 2 = target: T1, Beta-secretase 2 (Homo sapiens, UniProt Q9Y5Z0); settings: pH 4.5; 22 °C
T1 sequence (Q9Y5Z0 whole entry): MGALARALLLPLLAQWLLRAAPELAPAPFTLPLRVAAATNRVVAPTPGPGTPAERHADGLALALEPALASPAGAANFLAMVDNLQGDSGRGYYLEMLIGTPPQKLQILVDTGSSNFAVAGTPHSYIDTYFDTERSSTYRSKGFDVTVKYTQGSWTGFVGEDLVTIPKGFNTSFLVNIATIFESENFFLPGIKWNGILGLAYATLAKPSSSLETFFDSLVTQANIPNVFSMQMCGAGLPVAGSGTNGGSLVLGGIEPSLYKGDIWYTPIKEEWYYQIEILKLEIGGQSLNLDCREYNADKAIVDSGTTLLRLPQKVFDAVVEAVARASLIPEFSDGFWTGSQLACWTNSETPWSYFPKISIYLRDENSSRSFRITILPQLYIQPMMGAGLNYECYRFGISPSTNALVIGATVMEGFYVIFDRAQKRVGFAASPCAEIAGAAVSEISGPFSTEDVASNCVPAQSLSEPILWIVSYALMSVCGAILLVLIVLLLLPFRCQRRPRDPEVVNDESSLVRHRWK
Experimental: as §1

Sequence of Beta-secretase 1 (P56817 whole entry): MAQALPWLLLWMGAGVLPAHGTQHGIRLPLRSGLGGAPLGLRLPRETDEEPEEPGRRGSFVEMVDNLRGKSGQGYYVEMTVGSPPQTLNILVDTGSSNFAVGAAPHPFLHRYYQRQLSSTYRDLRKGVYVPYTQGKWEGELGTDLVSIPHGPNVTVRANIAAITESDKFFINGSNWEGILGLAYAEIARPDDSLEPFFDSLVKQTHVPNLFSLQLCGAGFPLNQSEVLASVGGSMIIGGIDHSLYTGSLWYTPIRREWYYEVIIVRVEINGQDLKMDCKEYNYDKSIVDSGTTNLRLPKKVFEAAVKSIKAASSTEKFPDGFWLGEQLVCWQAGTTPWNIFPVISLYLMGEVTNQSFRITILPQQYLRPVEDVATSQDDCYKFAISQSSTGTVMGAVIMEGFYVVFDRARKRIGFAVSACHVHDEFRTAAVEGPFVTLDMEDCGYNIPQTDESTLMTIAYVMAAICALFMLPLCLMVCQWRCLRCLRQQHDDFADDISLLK
Sequence of Cathepsin D (P07339 65-162 limits assumed): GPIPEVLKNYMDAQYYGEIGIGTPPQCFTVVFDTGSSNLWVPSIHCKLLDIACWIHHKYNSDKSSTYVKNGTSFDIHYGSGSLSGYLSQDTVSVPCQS
Sequence of Cathepsin D (P07339 169-412 limits assumed): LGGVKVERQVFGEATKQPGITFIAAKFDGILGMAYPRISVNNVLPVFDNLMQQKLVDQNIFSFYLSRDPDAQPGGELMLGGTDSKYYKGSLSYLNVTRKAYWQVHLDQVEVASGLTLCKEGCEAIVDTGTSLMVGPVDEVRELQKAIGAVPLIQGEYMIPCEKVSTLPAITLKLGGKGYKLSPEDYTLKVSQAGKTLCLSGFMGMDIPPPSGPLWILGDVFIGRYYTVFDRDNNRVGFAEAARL

Row | Compound | IC50 (Beta-secretase 1) | IC50 (Cathepsin D) | IC50 (Beta-secretase 2)
1 | CCNc1cc(C(=O)N[C@@H](Cc2ccccc2)[C@H](O)CNC)cc(N2CCCCS2(=O)=O)c1 [3-(1,1-dioxo-1,2-thiazinan-2-yl)-5-(ethylamino)-N-[(2S,3R)-3-hydroxy-4-(methylamino)-1-phenylbutan-2-yl]benzamide] | 140 nM | > 100000 nM | –
2 | CCc1cn2c3c(cc(C(=O)N[C@@H](Cc4ccccc4)[C@H](O)CNC4CCCCC4)cc13)N(C)S(=O)(=O)CC2 [BMCL193669 Compound 26] | 9 nM | 660 nM | 210 nM
3 | CCNc1cc(C(=O)N[C@@H](Cc2ccccc2)[C@H](O)CNC2CCCCC2)cc(N2CCCCS2(=O)=O)c1 [N-[(2S,3R)-4-(cyclohexylamino)-3-hydroxy-1-phenylbutan-2-yl]-3-(1,1-dioxo-1,2-thiazinan-2-yl)-5-(ethylamino)benzamide] | 69 nM | 2340 nM | 4370 nM
4 | CCNc1cc(C(=O)N[C@@H](Cc2ccccc2)[C@H](O)CNC(C)(C)CCCC(C)C)cc(N2CCCCS2(=O)=O)c1 [N-[(2S,3R)-4-[(2,6-dimethylheptan-2-yl)amino]-3-hydroxy-1-phenylbutan-2-yl]-3-(1,1-dioxo-1,2-thiazinan-2-yl)-5-(ethylamino)benzamide] | 30 nM | 5250 nM | 7940 nM
5 | CCc1cn2c3c(cc(C(=O)N[C@@H](Cc4ccccc4)[C@H](O)CNC(C)(C)CCCC(C)C)cc13)N(C)S(=O)(=O)CC2 [N-[(2S,3R)-4-[(2,6-dimethylheptan-2-yl)amino]-3-hydroxy-1-phenylbutan-2-yl]-3-ethyl-9-methyl-10,10-dioxo-10-thia-1,9-diazatricyclo[6.4.1.0^{4,13}]trideca-2,4(13),5,7-tetraene-6-carboxamide] | 5 nM | 1000 nM | 114 nM
